Test results reported in US20240116985A1, “STAPLED PEPTIDES AND METHODS THEREOF” (priority 2020, published 2024).

Molecular target: T1, full-length beta-Catenin (Uniprot ID P35222) (Homo sapiens, UniProt P35222)
T1 construct: 10 nM full-length beta-Catenin (Uniprot ID P35222)
T1 sequence (P35222 1-781): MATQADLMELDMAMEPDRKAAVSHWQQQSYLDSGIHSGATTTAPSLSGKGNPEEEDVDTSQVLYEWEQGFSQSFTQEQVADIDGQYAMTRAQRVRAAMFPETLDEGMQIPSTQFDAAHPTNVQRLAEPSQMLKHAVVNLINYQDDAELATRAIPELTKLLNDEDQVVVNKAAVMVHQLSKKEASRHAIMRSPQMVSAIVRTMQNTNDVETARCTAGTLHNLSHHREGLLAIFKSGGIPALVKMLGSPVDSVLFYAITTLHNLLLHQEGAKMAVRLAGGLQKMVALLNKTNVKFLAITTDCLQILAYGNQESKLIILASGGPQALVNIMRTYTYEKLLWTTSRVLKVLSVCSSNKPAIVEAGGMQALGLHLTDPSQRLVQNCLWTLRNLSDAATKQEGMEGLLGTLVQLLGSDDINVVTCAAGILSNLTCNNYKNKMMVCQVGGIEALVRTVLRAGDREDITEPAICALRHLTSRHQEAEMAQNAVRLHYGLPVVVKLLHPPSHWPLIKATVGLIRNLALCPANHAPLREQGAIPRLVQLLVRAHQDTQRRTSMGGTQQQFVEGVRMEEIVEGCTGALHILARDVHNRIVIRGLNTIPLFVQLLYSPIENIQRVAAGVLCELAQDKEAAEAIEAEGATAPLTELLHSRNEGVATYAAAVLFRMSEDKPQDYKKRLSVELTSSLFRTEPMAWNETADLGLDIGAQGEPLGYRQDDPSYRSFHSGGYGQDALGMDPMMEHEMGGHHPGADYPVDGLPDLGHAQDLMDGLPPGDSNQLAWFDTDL
Experiment: Fluorescence polarization IC50 (beta-catenin / 5FAM-TCF4 10-53 competition)
Assay type: binding
Settings: fluorescence polarization, beta-catenin; read-out: FP EC50

SMILES | IC50
CC(=O)N1CCC[C@]12CC=CCCCC1(CCCC=CCCCCCC[C@@](C)(C(=O)N[C@@H](Cc3ccsc3)C(=O)N[C@@H](Cc3csc4ccccc34)C(=O)N[C@@H](CCC(N)=O)C(N)=O)NC(=O)[C@H](CC(N)=O)NC(=O)[C@H](Cc3ccccc3)NC(=O)[C@H](C)NC(=O)[C@H](C)NC(=O)[C@H](CN(CC(=O)O)C(C)C)NC(=O)[C@H](CC(=O)O)NC1=O)NC(=O)[C@H](CC(C)(C)C)NC(=O)[C@H](CC(=O)O)NC2=O (stereo partly drawn) [I-1453, Ac-PL3-Asp-Npg-B5-Asp-[iPr]GA-Ala-Ala-Phe-Asn-S8-3Thi-BztA-Gln-NH2] | 52 nM

Same assay, conditions: fluorescence polarization; read-out: beta-Catenin FP IC50

SMILES | IC50
CC(=O)N1CCC[C@]12CC=CCCCC1(CCCC=CCCCOC(=O)N3CC[C@@](C(=O)N[C@@H](Cc4ccsc4)C(=O)N[C@@H](Cc4cccc5ccccc45)C(=O)N[C@@H](CCC(N)=O)C(N)=O)(C3)NC(=O)[C@H](CC(N)=O)NC(=O)[C@H](Cc3ccccc3)NC(=O)[C@H](C)NC(=O)[C@H](C)NC(=O)[C@H]([C@@H](C)O)NC(=O)[C@H](CC(N)=O)NC1=O)NC(=O)[C@H](CC(C)(C)C)NC(=O)[C@H](CC(=O)O)NC2=O (stereo partly drawn) [I-1870, Ac-PL3-Asp-Npg-B5-Asn-Thr-Ala-Ala-Phe-Asn-PyrS2-3Thi-1NapA-Gln-NH2] | 1520 nM
CC(=O)N1CCC[C@]12CC=CCCCC1(CCCC=CCCCOC(=O)N3CC[C@@](C(=O)N[C@@H](Cc4ccccc4Cl)C(=O)N[C@@H](Cc4csc5ccccc45)C(=O)N[C@@H](CCC(N)=O)C(N)=O)(C3)NC(=O)[C@H]([C@@H](C)O)NC(=O)[C@H](Cc3ccccc3)NC(=O)[C@H](C)NC(=O)CNC(=O)[C@H](CN(CC(=O)O)CC(F)(F)F)NC(=O)[C@H](CC(=O)O)NC1=O)NC(=O)[C@H](CC(C)(C)C)NC(=O)[C@H](CC(=O)O)NC2=O (stereo partly drawn) [I-1690, Ac-PL3-Asp-Npg-B5-Asp-TfeGA-Gly-Ala-Phe-Thr-PyrS2-2C1F-BztA-Gln-NH2] | 11 nM
CC(=O)N1CCC[C@]12CCCCC[C@@](C)(C(=O)N[C@@H](CC(=O)O)C(=O)N[C@@H](CC(=O)O)C(=O)N[C@@H](C)C(=O)N[C@@H](C)C(=O)N[C@@H](Cc1ccccc1)C(=O)N[C@@H](CC(C)C)C(=O)NC(C)(C)C(=O)N[C@@H](Cc1ccsc1)C(=O)N[C@@H](Cc1csc3ccccc13)C(=O)N[C@@H](CCC(N)=O)C(N)=O)NC(=O)[C@H](CC(C)(C)C)NC(=O)[C@H](CC(=O)O)NC2=O [I-1982, Ac-PL3-Asp-Npg-S4-Asp-Asp-Ala-Ala-Phe-Leu-Aib-3Thi-BztA-Gln-NH2] | 9660 nM
CC(=O)N1CCC[C@]12CC=CCCCC1(CCCC=CCCCOC(=O)N3CC[C@@](C(=O)N[C@@H](Cc4cccs4)C(=O)N[C@@H](Cc4csc5ccccc45)C(=O)N[C@@H](CCO)C(N)=O)(C3)NC(=O)[C@H](CC(N)=O)NC(=O)[C@H](Cc3ccccc3)NC(=O)[C@H](C)NC(=O)[C@H](CCCCNC(C)C)NC(=O)[C@H](CCC(N)=O)NC(=O)[C@H](CC(=O)O)NC1=O)NC(=O)[C@H](CC1CCCCC1)NC(=O)[C@H](CC(N)=O)NC2=O (stereo partly drawn) [I-2075, Ac-PL3-Asn-Cha-B5-Asp-Gln-iPrLys-Ala-Phe-Asn-PyrS2-2Thi-BztA-Hse-NH2] | 2330 nM
CC(=O)N1CCC[C@]12CC=CCCCC1(CCCC=CCCCOC(=O)N3CC[C@@](C(=O)N[C@@H](Cc4ccsc4)C(=O)N[C@@H](Cc4csc5ccccc45)C(=O)N[C@@H](CCC(N)=O)C(N)=O)(C3)NC(=O)[C@H](CC(N)=O)NC(=O)[C@H](Cc3ccccc3)NC(=O)[C@H](C)NC(=O)[C@H](C)NC(=O)[C@H](Cc3ccc(O)cc3)NC(=O)[C@H](CC(N)=O)NC1=O)NC(=O)[C@H](CC(C)(C)C)NC(=O)[C@H](CC(=O)O)NC2=O (stereo partly drawn) [I-1569, Ac-PL3-Asp-Npg-B5-Asn-Tyr-Ala-Ala-Phe-Asn-PyrS2-3Thi-BztA-Gln-NH2] | 2660 nM
CC(=O)N1CCC[C@]12CC=CCCCC1(CCCC=CCCCOC(=O)N3CC[C@](C(=O)N[C@@H](Cc4ccsc4)C(=O)N[C@@H](Cc4csc5ccccc45)C(=O)N[C@@H](CCC(N)=O)C(N)=O)(C3)NC(=O)[C@H](CC(N)=O)NC(=O)[C@H](Cc3ccccc3)NC(=O)[C@H](C)NC(=O)[C@H](C)NC(=O)[C@H](CC(=O)O)NC(=O)[C@H](CC(=O)O)NC1=O)NC(=O)[C@H](CC(C)(C)C)NC(=O)[C@H](CC(=O)O)NC2=O (stereo partly drawn) [I-2017, Ac-PL3-Asp-Npg-B5-Asp-Asp-Ala-Ala-Phe-Asn-PyrR2-3Thi-BztA-Gln-NH2] | 2050 nM
CC(=O)N1CCC[C@]12CC=CCCCC1(CCCC=CCCCOC(=O)N3CC[C@@](C(=O)N[C@@H](Cc4ccccc4)C(=O)N[C@@H](Cc4csc5ccccc45)C(=O)N[C@@H](CCCCN)C(N)=O)(C3)NC(=O)[C@H](CC(C)C)NC(=O)[C@H](Cc3ccccc3)NC(=O)[C@H](C)NC(=O)[C@H](CCCN3CCOCC3)NC(=O)[C@H](CCC(N)=O)NC(=O)[C@H](CC(=O)O)NC1=O)NC(=O)[C@H](CC1CCCCC1)NC(=O)[C@H](CC(N)=O)NC2=O (stereo partly drawn) [I-2427, Ac-PL3-Asn-Cha-B5-Asp-Gln-MorphNva-Ala-Phe-Leu-PyrS2-Phe-BztA-Lys-NH2] | 757 nM
CC(=O)N1CCC[C@]12CC=CCCCC1(CCCC=CCCCOC(=O)N3CC[C@@](C(=O)N[C@@H](Cc4ccccc4Cl)C(=O)N[C@@H](Cc4csc5ccccc45)C(=O)N[C@H](C)C(N)=O)(C3)NC(=O)[C@H](CC(N)=O)NC(=O)[C@H](Cc3ccccc3)NC(=O)[C@H](C)NC(=O)[C@H](C)NC(=O)[C@H](Cc3cccc(C(=O)O)c3)NC(=O)[C@H](CC(=O)O)NC1=O)NC(=O)[C@H](CC(C)(C)C)NC(=O)[C@H](CC(=O)O)NC2=O (stereo partly drawn) [I-2034, Ac-PL3-Asp-Npg-B5-Asp-3COOHF-Ala-Ala-Phe-Asn-PyrS2-2C1F-BztA-dAla-NH2] | 18 nM
CC(=O)N1CCC[C@]12CC=CCCCC1(CCCC=CCCCOC(=O)N3CC[C@@](C(=O)N[C@@H](Cc4ccccc4)C(=O)N[C@@H](Cc4csc5ccccc45)C(=O)N[C@@H](CCO)C(N)=O)(C3)NC(=O)[C@H](CCO)NC(=O)[C@H](Cc3ccccc3)NC(=O)[C@H](C)NC(=O)[C@H](CCCCNC(C)C)NC(=O)[C@H](CCC(N)=O)NC(=O)[C@H](CC(=O)O)NC1=O)NC(=O)[C@H](CC1CCCCC1)NC(=O)[C@H](CC(N)=O)NC2=O (stereo partly drawn) [I-1922, Ac-PL3-Asn-Cha-B5-Asp-Gln-iPrLys-Ala-Phe-Hse-PyrS2-Phe-BztA-Hse-NH2] | 457 nM
CC(=O)N1CCC[C@]12CC=CCCCC1(CCCC=CCCCCCC[C@@](C)(C(=O)N[C@@H](Cc3ccsc3)C(=O)N[C@@H](Cc3csc4ccccc34)C(=O)N[C@@H](CCC(N)=O)C(N)=O)NC(=O)[C@H](CC(N)=O)NC(=O)[C@H](Cc3ccccc3)NC(=O)[C@H](C)NC(=O)[C@H](C)NC(=O)[C@H](CN(CC(=O)O)C(C)C)NC(=O)[C@H](CC(=O)O)NC1=O)NC(=O)[C@H](CC(C)(C)C)NC(=O)[C@H](CC(=O)O)NC2=O (stereo partly drawn) [I-1453, Ac-PL3-Asp-Npg-B5-Asp-[iPr]GA-Ala-Ala-Phe-Asn-S8-3Thi-BztA-Gln-NH2] | 52 nM
CC(=O)N1CCC[C@]12CC=CCCCC1(CCCC=CCCCOC(=O)N3CC[C@@](C(=O)N[C@@H](Cc4ccsc4)C(=O)N[C@@H](Cc4csc5ccccc45)C(=O)N[C@@H](CCC(N)=O)C(=O)N[C@@H](CCCCNC(=O)C45CC6(C)CC(C)(CC(C)(C6)C4)C5)C(N)=O)(C3)NC(=O)[C@H](CC(C)C)NC(=O)[C@H](Cc3ccccc3)NC(=O)[C@H](C)NC(=O)[C@H](C)NC(=O)[C@H](CC(=O)O)NC(=O)[C@H](CC(=O)O)NC1=O)NC(=O)[C@H](CC(C)(C)C)NC(=O)[C@H](CC(=O)O)NC2=O (stereo partly drawn) [I-1479, Ac-PL3-Asp-Npg-B5-Asp-Asp-Ala-Ala-Phe-Leu-PyrS2-3Thi-BztA-Gln-[Me3AdamantC]-Lys-NH2] | 173 nM

Same assay, conditions: read-out: beta-Catenin FP IC50; fluorescence polarization

SMILES | IC50
CC(=O)N1CCC[C@]12CC=CCCCC1(CCCC=CCCCOC(=O)N3CC[C@@](C(=O)N[C@@H](Cc4ccsc4)C(=O)N[C@@H](Cc4csc5ccccc45)C(=O)N[C@@H](CCC(N)=O)C(N)=O)(C3)NC(=O)[C@H](CC(C)C)NC(=O)[C@H](Cc3ccccc3)NC(=O)[C@H](C)NC(=O)[C@H](C)NC(=O)[C@H](CCC(=O)OCCSSc3ccccc3)NC(=O)[C@H](CC(=O)O)NC1=O)NC(=O)[C@H](CC(C)(C)C)NC(=O)[C@H](CC(=O)O)NC2=O (stereo partly drawn) [I-1957, Ac-PL3-Asp-Npg-B5-Asp-[EtSSPh]GluE-Ala-Ala-Phe-Leu-PyrS2-3Thi-BztA-Gln-NH2] | 567 nM
